In brackets after ≈: the same amount, converted by molar mass. Several values for one entry are separate records, joined by “and”; a condition that tells them apart may be missing. Equal entries are not always repeated.
Assays:
Cryptococcus neoformans = test: Checkerboard microdilution synergy (FIC); settings: for FIC / MIC alone / MIC combo: AMB and MM:TM
RAW 264.7 macrophages = test: In vitro cytotoxicity (CytoTox-ONE, LDH release); settings: 12 hours
C. auris = test: MIC100 against yeast (CLSI M27-A3); type: cell-based, Candida auris; settings: Candidozyma auris
Aspergillus species = test: MIC100 against 18 species of the Aspergillus genus; type: cell-based, Aspergillus spp.
From the text: We assessed the antifungal activity of MM-TM, DM-TM, and NM against 18 different species within the genus Aspergillus.

Aspergillus fumigatus = test: microbe, parasite or virus in culture
[1] = H99, […]10^5 cells/mL, 30°C, OD600 48 h, Avg.
[2] = H99, […]10^5 cells/mL, 30°C, OD600 48 h, trial 1
[3] = H99, […]10^5 cells/mL, 30°C, OD600 48 h, trial 2
[4] = MM:TM (40:60) with Amp B, isolate H99 (Amp B Sensitive), […]10^5 cells/mL, 30° C.
[5] = NM20 with Amp B, isolate H99, […] 10^5 cells/mL
[6] = Table 41, MM:TM with Amp B, isolate H99, […] 10^5 cells/mL

C[C@@H]1[C@H](O)[C@@H](C)/C=C/C=C/C=C/C=C/C=C/C=C/C=C/[C@H](O[C@@H]2O[C@H](C)[C@@H](O)[C@H](N)[C@@H]2O)C[C@@H]2O[C@](O)(C[C@@H](O)C[C@@H](O)[C@H](O)CC[C@@H](O)C[C@@H](O)CC(=O)O[C@H]1C)C[C@H](O)[C@H]2C(=O)O [AMB, amphotericin B]
decrease of the MIC of AMB in combination with MM:TM (Cryptococcus neoformans; H99): > 10 fold | MIC Combined (Cryptococcus neoformans; H99, AMB and MM:TM in combination, […]10^5 cells/mL, 30°C, OD600 48 h): 0.16 µM | FIC (Cryptococcus neoformans; H99, Avg.): 0.05 | MIC alone (Cryptococcus neoformans; [1]): 3.1 µg/mL | MIC combo (Cryptococcus neoformans; [1]): 0.15 µg/mL | MIC alone (Cryptococcus neoformans; [2]): 3.1 µg/mL | MIC combo (Cryptococcus neoformans; [2]): 0.2 µg/mL | MIC alone (Cryptococcus neoformans; [3]): 3.1 µg/mL | MIC combo (Cryptococcus neoformans; [3]): 0.1 µg/mL | MIC alone (Cryptococcus neoformans; H99, single agent, […]10^5 cells/mL, 30°C, OD600 48 h): 3.4 µM | FIC (Cryptococcus neoformans; H99, trial 1): 0.06 | FIC (Cryptococcus neoformans; H99, trial 2): 0.03 | MIC AMB alone (Cryptococcus neoformans; H99, AMB as single agent, OD600, 48 h, 30° C.): 3.4 µM | MIC AMB combination (Cryptococcus neoformans; H99, AMB in combination with MM:TM, OD600, 48 h, 30° C.): 0.1 µM and 0.16 µM and 0.2 µM | FICAMB (Cryptococcus neoformans; H99, AMB with MM:TM): 0.03 and 0.05 and 0.06 | FICAmp B (Cryptococcus neoformans; [4]): 0.09 | MIC Amp B alone (Cryptococcus neoformans; [4]): 1.6 µg/mL | MIC Amp B in combination (Cryptococcus neoformans; [4]): 0.15 µg/mL | MIC AMB alone (Cryptococcus neoformans; [5]): 3.1 µg/mL | MIC AMB in combination (Cryptococcus neoformans; [5]): 0.1 µg/mL | MIC Amp B alone (Cryptococcus neoformans; [6]): 1.6 µg/mL | MIC Amp B in combination (Cryptococcus neoformans; [6]): 0.15 µg/mL | cell death at the highest concentration tested (RAW 264.7 macrophages): less than 50% | concentration causing 10% cell death (IC10) (RAW 264.7 macrophages): 108 µM

OC(Cn1cncn1)(Cn1cncn1)c1ccc(F)cc1F [FLC, fluconazole]
MIC50 (C. auris; Candida auris B11220): 4 µg/mL (≈ 13.1 µM) | MIC50 (C. auris; Candida auris C54039, Resistance AmB): 16 µg/mL (≈ 52.2 µM)

CCC(C)n1ncn(-c2ccc(N3CCN(c4ccc(OCC5COC(Cn6cncn6)(c6ccc(Cl)cc6Cl)O5)cc4)CC3)cc2)c1=O (stereo not shown) [Itraconazole, itraconazole]
MIC (Aspergillus species; Aspergillus aculeatus isolate CBS 172.66): < 1 µg/mL | MIC (Aspergillus species; Aspergillus brasiliensis isolate CBS 101740): 64 µg/mL (≈ 90.7 µM) | MIC (Aspergillus species; Aspergillus carbonarius isolate DT0115-B6): < 1 µg/mL | MIC (Aspergillus species; Aspergillus clavatus isolate CBS 513.65): 64 µg/mL (≈ 90.7 µM) | MIC (Aspergillus species; Aspergillus fumigatus isolate CEA10): < 1 µg/mL | MIC (Aspergillus species; Aspergillus glaucus isolate CBS 516.65): 2 µg/mL (≈ 2.83 µM) | MIC (Aspergillus species; Aspergillus nidulans isolate FGSCA4): < 1 µg/mL | MIC (Aspergillus species; Aspergillus niger isolate CBS 113.46): < 1 µg/mL | MIC (Aspergillus species; Aspergillus oryzae isolate Rib40): 1 µg/mL (≈ 1.42 µM) | MIC (Aspergillus species; Aspergillus parasiticus isolate Su-1): < 1 µg/mL | MIC (Aspergillus species; Aspergillus sydowii isolate CBS 593.65): 2 µg/mL (≈ 2.83 µM) | MIC (Aspergillus species; Aspergillus terreus isolate NCCB IH2626): < 1 µg/mL | MIC (Aspergillus species; Aspergillus versicolor isolate CBS 795.97): 1 µg/mL (≈ 1.42 µM) | MIC (Aspergillus species; Aspergillus wentii isolate DT0136-E9): < 1 µg/mL | MIC (Aspergillus species; Aspergillus zonatus isolate CBS 506.65): < 1 µg/mL | MIC (Aspergillus species; Neosartorya fischeri isolate CBS 544.65): > 8 µg/mL | MIC (Aspergillus fumigatus; 48 h, A. fumigatus AF293, visually, 1 × 10^5 cells/mL, 35° C.): 1 µg/mL and 1.4 µM | MIC (Aspergillus fumigatus; 48 h, A. fumigatus CEA10, visually, 1 × 10^5 cells/mL, 35° C.): > 1 µg/mL and > 1.4 µM | MIC (Aspergillus fumigatus; 48 h, A. fumigatus F11628, visually, 1 × 10^5 cells/mL, 35° C.): 48 µg/mL and 68.5 µM | MIC (Aspergillus fumigatus; 48 h, A. fumigatus F16216, visually, 1 × 10^5 cells/mL, 35° C.): 32 µg/mL and 45.3 µM | MIC (Aspergillus fumigatus; A. fumigatus AF293): 1.4 µM (≈ 0.988 µg/mL) | MIC (Aspergillus fumigatus; A. fumigatus CEA10): > 1.4 µM | MIC (Aspergillus fumigatus; A. fumigatus F11628): 68 µM (≈ 48 µg/mL) | MIC (Aspergillus fumigatus; A. fumigatus F16216): 45.3 µM (≈ 32 µg/mL) | MIC (Aspergillus fumigatus; azole resistant strain F11628): > 45 µM | MIC (Aspergillus fumigatus; strain F16216): 45.3 µM (≈ 32 µg/mL)
